29 compounds from patent EP4800013A1, “PARG INHIBITOR” (Shanghai Qilu Pharmaceutical Research and Development …, priority 2023, dated 2025) can be followed below.

The subject of experiment [1] is KURAMOCHI cells. The experiment is described as follows: Inhibition of proliferation of KURAMOCHI cells (CellTiter-Glo, intracellular ATP). The format is cell-based. The note with it: 168 h, incubated for 7 days, read-out: IC50 against KURAMOCHI cells. The method, then:
In this experiment, the inhibitory effect of the compounds of the present disclosure on the proliferation of the cancer cell line KURAMOCHI was evaluated by measuring intracellular ATP levels using a bioluminescent assay, and the half maximal inhibitory concentration (IC50) was determined.
RPMI 1640 medium (Cat. No. 11875-093), fetal bovine serum (10099-141), and 100× Pen/Strep (15070-063) were purchased from GIBCO. CellTiter-Glo Luminescent Cell Viability Assay reagent (Cat. No. G7573) was purchased from Promega.
• 1) Day 1: KURAMOCHI cells were counted using a cell counter and seeded into a 96-well culture plate at a density of 4000 cells per well in 100 µL medium. The plate was incubated overnight in an incubator (37°C, 5% CO2). • 2) Day 2: Using a D300e digital dispenser (TECAN), 500 nL of serially diluted test compounds of the present disclosure (starting at 10 µM, a total of 9 concentrations, 1:4 dilution) were added to the cells in the culture plate. The final concentration of DMSO was 0.5%. The cell culture plate was incubated for 7 days in a cell culture incubator (37°C, 5% CO2). Control group 1 received only medium and DMSO (100% inhibition group). Control group 2 received only DMSO (0% inhibition group). The final concentration of DMSO in both groups was 0.5%. • 3) Day 9: 100 µL of CellTiter-Glo reagent was added to each well. The plate was shaken at 500 rpm for 2 minutes, centrifuged at 1000 rpm for 1 minute, and then incubated at room temperature in the dark for 10 minutes to stabilize the luminescence signal. • 4) Luminescence signals were measured using an EnVision microplate reader (PerkinElmer). • 5) Data analysis was performed using GraphPad Prism 8. The IC50 values of the compounds of the present disclosure were calculated as follows. The CTG signal values were analyzed. The average inhibition rate of control group 1 (100% inhibition group) was set as the relative inhibition rate of 100%. The average inhibition rate of control group 2 (0% inhibition group) was set as the relative inhibition rate of 0%. The CTG signal values were converted into relative inhibition rates. The inhibition percentage (inhibition%) for each concentration of the compounds of the present disclosure was calculated according to the following formula: Inhibition% = (b−x)/(b−a)*100%; [formula] • a = CTG value (highest concentration), b = CTG value (blank well), x = CTG value (test well). • IC50 was calculated using GraphPad Prism 8. • (1) The concentration and inhibition rate corresponding to each well were recorded. Statistical calculation was performed using Log10 (compound concentration). • (2) The data were input into GraphPad Prism 8 and Analysis was selected. • (3) Nonlinear regression (curve fit) was selected. • (4) Log (inhibitor) vs. response - Variable slope was selected. • (5) The calculation formula was selected, and the calculation was performed according to the following formula: Y = Bottom + (Top - Bottom) / (1 + 10 ^ ((LogIC50 - X) * HillSlope)); X: log of dose or concentration; Y: response; Top and Bottom: maximum and minimum response. • (6) The IC50 values were calculated by fitting the data. Table 16: Inhibitory effect of the compounds of the present disclosure on the proliferation of KURAMOCHI cells

Experiment [2] concerns the target T1, PARG (Homo sapiens, UniProt Q86W56).
T1 construct: made in house
The experiment is described as follows: Enzymatic inhibitory activity against PARG, HTRF assay. The format is biochemical. Conditions: HTRF; PARylated PARP1 protein as substrate; 60 minutes at room temperature; read-out: IC50 against PARG enzyme. Here is the method: In this experiment, the enzymatic inhibitory activity of the compounds of the present disclosure against PARG was determined using an HTRF (homogeneous time-resolved fluorescence) assay.
HTRF assay reagents were purchased from PerkinElmer (Cat. Nos. 61HISTLB and 610SAXLB). The purified protein was prepared in-house.
PARG enzyme reaction buffer: 50 mM Tris (pH 7.4), 0.1 mg/mL BSA, 3 mM EDTA, 0.4 mM EGTA, 1 mM DTT, 50 mM KCl, and 0.01% Tween 20.
• 1) Using an ultra-micro pipette, the compounds of the present disclosure were serially diluted (starting at 10 µM with 3- to 5-fold serial dilutions) and added to a 384-well reaction plate, with each concentration tested in duplicate wells. Control group 1 was added with 10 µM control compound (100% inhibition group). Control group 2 was added with DMSO (0% inhibition group). After compound addition, the 384-well plate was centrifuged at 1000 rpm for 1 minute. • 2) 2.5 µL of PARG protein was added to each well and incubated with the compounds of the present disclosure at room temperature for 15 minutes, followed by centrifugation at 1000 rpm for 1 minute. • 3) 2.5 µL of PARylated PARP1 protein was added to each well and incubated at room temperature for 60 minutes, followed by centrifugation at 1000 rpm for 1 minute. • 4) 5 µL of His-Tb & SA-XL665 HTRF assay reagents were added to each well and incubated at room temperature for 60 minutes, followed by centrifugation at 1000 rpm for 1 minute. • 5) […] were measured using a PHERAstar FSX microplate reader from BMG. • 6) Data analysis was performed using GraphPad Prism 8. The IC50 values of the compounds of the present disclosure were calculated as follows. […] The average value of duplicate wells in control group 2 (0% inhibition group) was set as the relative inhibition rate of 0%. The HTRF signal values were converted into relative inhibition rates. The IC50 values of the compounds were calculated by fitting the data to a four-parameter logistic model. Table 15: Enzymatic inhibitory activity of the compounds of the present disclosure against PARG

T1 sequence (Q86W56 whole entry): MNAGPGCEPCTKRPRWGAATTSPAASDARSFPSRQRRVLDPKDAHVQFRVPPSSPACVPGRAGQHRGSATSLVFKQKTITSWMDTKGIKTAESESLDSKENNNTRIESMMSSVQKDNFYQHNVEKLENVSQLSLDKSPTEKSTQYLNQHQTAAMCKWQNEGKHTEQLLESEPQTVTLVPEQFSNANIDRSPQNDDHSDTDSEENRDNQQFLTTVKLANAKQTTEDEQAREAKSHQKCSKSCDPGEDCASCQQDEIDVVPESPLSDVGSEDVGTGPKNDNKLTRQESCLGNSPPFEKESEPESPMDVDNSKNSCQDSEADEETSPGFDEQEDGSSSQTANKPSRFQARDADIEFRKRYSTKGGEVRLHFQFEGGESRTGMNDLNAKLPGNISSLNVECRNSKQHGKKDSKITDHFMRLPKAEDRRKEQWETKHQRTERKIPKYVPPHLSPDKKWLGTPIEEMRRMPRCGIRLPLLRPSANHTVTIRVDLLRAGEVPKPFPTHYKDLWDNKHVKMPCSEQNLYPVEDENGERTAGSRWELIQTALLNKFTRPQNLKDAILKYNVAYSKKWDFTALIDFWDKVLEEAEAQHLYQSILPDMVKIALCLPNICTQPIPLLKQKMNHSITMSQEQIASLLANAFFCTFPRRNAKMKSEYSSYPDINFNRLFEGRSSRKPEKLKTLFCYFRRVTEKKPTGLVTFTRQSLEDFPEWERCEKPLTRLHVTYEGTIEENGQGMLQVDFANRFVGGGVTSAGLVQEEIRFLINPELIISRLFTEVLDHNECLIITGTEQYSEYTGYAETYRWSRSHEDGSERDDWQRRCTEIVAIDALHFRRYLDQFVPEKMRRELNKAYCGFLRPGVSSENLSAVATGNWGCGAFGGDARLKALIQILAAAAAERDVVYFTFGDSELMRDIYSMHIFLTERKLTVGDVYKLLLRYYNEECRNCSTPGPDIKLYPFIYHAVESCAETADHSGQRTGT

For the compound `C[C@H]1CN(c2cc(S(=O)(=O)NC3(C)CC3)cc3c2nnn3-c2nnc(C(F)F)s2)C[C@H](C)N1` [Compound 008B], the IC50 is 9 nM in experiment [1] and 9.6 nM in experiment [2].
The like results for `CC(C)Oc1nc2c(N3CCN(C(=O)C(C)C)CC3)cc(S(=O)(=O)NC3(C#N)CC3)cc2n1-c1nnc(C(F)F)s1` [Compound 057L] were, in that order, 8 nM and 8.6 nM.
As to `CN(C)C(=O)N1CCN(c2cc(S(=O)(=O)NC3(C#N)CC3)cc3c2nc(OC2CC2)n3-c2nnc(C(F)F)s2)CC1` [Compound 057M], the half-maximal inhibitory concentration (IC50) worked out at 6 nM in experiment [1] and 2.8 nM in experiment [2].
Regarding `CC(C)C(=O)N1CCN(c2cc(S(=O)(=O)NC3(C#N)CC3)cc3c2nc(OC2COC2)n3-c2nnc(C(F)F)s2)CC1` [Compound 057N], the IC50 in experiment [1] worked out at 9 nM; in experiment [2], 8.3 nM.
As to `CC(C)C(=O)N1CCN(c2cc(S(=O)(=O)NC3(C#N)CC3)cc3c2nc(OC2CC2)n3-c2nnc(C(F)F)s2)CC1` [Compound 057Q], the half-inhibitory concentration (IC50) was 7 nM in experiment [1] and 5.1 nM in experiment [2].
Turning to `CN(C)C(=O)N1CCC(c2cc(S(=O)(=O)NC3(C#N)CC3)cc3c2ncn3-c2nnc(C(F)F)s2)CC1` [Compound 059C], the IC50 in experiment [1] is 20 nM; in experiment [2], 6.5 nM.
As for `CC(C)C(=O)N1CCC(c2cc(S(=O)(=O)NC3(C#N)CC3)cc3c2ncn3-c2nnc(C(F)F)s2)CC1` [Compound 059D], the results for the concentration for half-maximal inhibition (IC50) in experiment [1] and in experiment [2] were 40 nM and 28.8 nM, respectively.
On to `C[C@H]1CN(c2cc(S(=O)(=O)NC3(CF)CC3)cc3c2c2nccnc2n3-c2nnc(C(F)F)s2)C[C@H](C)N1` [Compound 065I], for which the half-inhibitory concentration (IC50) was determined as 5 nM in experiment [1] and 1.8 nM in experiment [2].
On to `[2H]C([2H])([2H])C1(NS(=O)(=O)c2cc(N3C[C@H](C)N[C@@H](C)C3)c3c4nccnc4n(-c4nnc(C(F)F)s4)c3c2)CC1` [Compound 065J], for which the IC50 in experiment [1] was determined as 7 nM; in experiment [2], 2.4 nM.
Consider `C[C@H]1CN(c2cc(S(=O)(=O)NC3(C#N)CC3)cc3c2c2nccnc2n3-c2nnc(C(F)F)s2)C[C@H](C)N1` [Compound 065K], for which the IC50 in experiment [1] is 22 nM; in experiment [2] it was 6.3 nM.
The corresponding values for `C[C@H]1CN(c2cc(S(=O)(=O)NC3(C)COC3)cc3c2c2nccnc2n3-c2nnc(C(F)F)s2)C[C@H](C)N1` [Compound 065L] are 18 nM and 5.5 nM.
`C[C@H]1CN(c2cc(S(=O)(=O)NC3(C#N)CC3)cc3c2n2ncnc2n3-c2nnc(C(F)F)s2)C[C@H](C)N1` [Compound 065N]: the values for the IC50 in experiment [1] and in experiment [2] were 9 nM and 7.3 nM, respectively.
As for `[2H]C([2H])([2H])C1(NS(=O)(=O)c2cc(N3C[C@H](C)N[C@@H](C)C3)c3c(c2)n(-c2nnc(C(F)F)s2)c2ncnn32)CC1` [Compound 065O], the figures for the half-inhibitory concentration (IC50) in experiment [1] and in experiment [2] were 3 nM and 3.1 nM, respectively.
In the case of `C[C@H]1CN(c2cc(S(=O)(=O)NC3(C)COC3)cc3c2n2ncnc2n3-c2nnc(C(F)F)s2)C[C@H](C)N1` [Compound 065P], the half-maximal inhibitory concentration (IC50) came to 7 nM in experiment [1] and 5.8 nM in experiment [2].
Take `C[C@H]1CN(c2cc(S(=O)(=O)NC3(C)CC3)cc3c2n2nc(C(C)(C)O)nc2n3-c2nnc(C(F)F)s2)C[C@H](C)N1` [Compound 065T]: the IC50 turned out to be 13 nM in experiment [1] and 1.5 nM in experiment [2].
For the compound `COCc1nc2n(-c3nnc(C(F)F)s3)c3cc(S(=O)(=O)NC4(C)CC4)cc(N4C[C@H](C)N[C@@H](C)C4)c3n2n1` [Compound 065U], the results for the IC50 in experiment [1] and in experiment [2] were 2 nM and 0.5 nM, respectively.
With `C[C@H]1CN(c2cc(S(=O)(=O)NC3(C)CC3)cc3c2n2nc(Cl)nc2n3-c2nnc(C(F)F)s2)C[C@H](C)N1` [Compound 065X], the IC50 is 4 nM in experiment [1] and 0.5 nM in experiment [2].
As for `CC(C)c1nc2n(-c3nnc(C(F)F)s3)c3cc(S(=O)(=O)NC4(C)CC4)cc(N4C[C@H](C)N[C@@H](C)C4)c3n2n1` [Compound 065Y], the results for the IC50 in experiment [1] and in experiment [2] were 6 nM and 0.8 nM, respectively.
Consider `C[C@H]1CN(c2cc(S(=O)(=O)NC3(C)CC3)cc3c2n2nc(C4CC4)nc2n3-c2nnc(C(F)F)s2)C[C@H](C)N1` [Compound 065Z], for which the half-inhibitory concentration (IC50) in experiment [1] worked out at 4 nM; in experiment [2], 1 nM.
The like results for `C=CCn1c(=O)n(-c2nnc(C(F)F)s2)c2cc(S(=O)(=O)NC3(C#N)CC3)cc(N3CCN(C(=O)N4CCC4)CC3)c21` [Compound 067B] were, in that order, 15 nM and 6.9 nM.
On to `C=CCn1c(=O)n(-c2nnc(C(F)F)s2)c2cc(S(=O)(=O)NC3(C#N)CC3)cc(N3CCN(C(=O)N4CCOCC4)CC3)c21` [Compound 067G], for which the IC50 in experiment [1] stood at 26 nM; in experiment [2], 8.7 nM.
As to `C=CCn1c(=O)n(-c2nnc(C(F)F)s2)c2cc(S(=O)(=O)NC3(C#N)CC3)cc(N3CCN(c4nccn4C)CC3)c21` [Compound 067J], the IC50 amounted to 21 nM in experiment [1] and 7.8 nM in experiment [2].
Regarding `[2H]C([2H])([2H])OC(C)(C)C(=O)N1CCN(c2cc(S(=O)(=O)NC3(C#N)CC3)cc3c2n(CC=C)c(=O)n3-c2nnc(C(F)F)s2)CC1` [Compound 067LD], the results for the IC50 in experiment [1] and in experiment [2] were 5 nM and 2.2 nM, respectively.
For `C=CCn1c(=O)n(-c2nnc(C(F)F)s2)c2cc(S(=O)(=O)NC3(C#N)CC3)cc(N3CCN(C(=O)C(C)(C)OC)CC3)c21` [Compound 067L], the IC50 in experiment [1] came to 4 nM; in experiment [2] it was 4.9 nM.
In the case of `[2H]C([2H])([2H])OC1(C(=O)N2CCN(c3cc(S(=O)(=O)NC4(C#N)CC4)cc4c3n(CC=C)c(=O)n4-c3nnc(C(F)F)s3)CC2)CC1` [Compound 067ND], the half-maximal inhibitory concentration (IC50) in experiment [1] worked out at 3 nM; in experiment [2], 2.3 nM.
With `C=CCn1c(=O)n(-c2nnc(C(F)F)s2)c2cc(S(=O)(=O)NC3(C#N)CC3)cc(N3CCN(C(=O)C4(OC)CC4)CC3)c21` [Compound 067N], the IC50 is 3 nM in experiment [1] and 3.1 nM in experiment [2].
Regarding `C=CCn1c(=O)n(-c2nnc(C(F)F)s2)c2cc(S(=O)(=O)NC3(C#N)CC3)cc(N3CCN(C(=O)C(C)(C)N)CC3)c21` [Compound 067P], the values for the half-maximal inhibitory concentration (IC50) in experiment [1] and in experiment [2] were 74 nM and 5.2 nM, respectively.
For the compound `C=CCn1c(=O)n(-c2nnc(C(F)F)s2)c2cc(S(=O)(=O)NC3(C#N)CC3)cc(N3CCN(C(=O)C(C)(C)NC)CC3)c21` [Compound 067Q], the IC50 in experiment [1] amounted to 13 nM; in experiment [2] it was 5 nM.
Take `C=C[C@H]1CN(c2cc(S(=O)(=O)NC3(C)CC3)cc3c2cnn3-c2nnc(C(F)F)s2)C[C@H](C=C)N1` [Compound 078C]: in experiment [1], the IC50 was found to be 15 nM.
